Source: US20250352658A1, “COMBINATION THERAPY USING ANTIBODY-DRUG CONJUGATES” (ADC THERAPEUTICS SA, priority 2021, published 2025)
Square brackets hold non-standard residues; d marks the D form. Peptide text beside a SMILES is read from it. * marks the point of attachment. Dolaproine = CO[C@@H]([C@@H]1CCCN1)[C@@H](C)C(=O)O; Dil = CC[C@H](C)[C@H](NC)[C@@H](CC(=O)O)OC; X1 = C[C@@H](N*)[C@@H](O)c1ccccc1; NMeV = CN[C@H](C(=O)O)C(C)C

Tested on: TMD8 cells
Test: CellTiterGlo viability assay, SG3199 and MMAE combination, TMD8
Assay type: cell-based
Details: 24 hours
Method: We tested a combination of the warheads alone used in CD19xADC (PBD SG3199) and CD79bxADC (monomethyl auristatin E (MMAE)). This was performed essentially as per Example 1, in TMD8 cells. Cells were seeded at a density of 50,000 cells/mL. […]
Cells were incubated for 24 hours and then viability was measured with CellTiterGlo assay.
For analysis of the results, data were first blank corrected (average of blank of the 3 replicates was subtracted from each data value). For GraphPad analysis, each replicate was normalized over the untreated cells (average of the 3 replicates). Data were analysed by GraphPad Prism to generate a dose response curve with Log drug concentration on X-axis and cell viability (%) on Y-axis. For CalcuSyn analysis, the average of the 3 replicates was corrected over the untreated cells.

CC[C@H](C)[C@@H]([C@@H](CC(=O)N1CCC[C@H]1[C@H](OC)[C@@H](C)C(=O)N[C@H](C)[C@@H](O)c1ccccc1)OC)N(C)C(=O)[C@@H](NC(=O)[C@@H](NC)C(C)C)C(C)C [MMAE, monomethyl auristatin E, reference compound] (H-[NMeV]V[Dil][Dolaproine]-X1)
Fa (fraction affected) (MMAE 0.08 ng/ml alone (SG3199 0)): 0.11
Fa (fraction affected) (MMAE 0.2 ng/ml alone (SG3199 0)): 0.17
Fa (fraction affected) (MMAE 0.6 ng/ml alone (SG3199 0)): 0.27
Fa (fraction affected) (MMAE 1.9 ng/ml alone (SG3199 0)): 0.29
Fa (fraction affected) (MMAE 5.6 ng/ml alone (SG3199 0)): 0.38

COc1cc2c(cc1OCCCCCOc1cc3c(cc1OC)C(=O)N1C=C(C)C[C@H]1C=N3)N=C[C@@H]1CC(C)=CN1C2=O [SG3199, reference compound]
Fa (fraction affected) (SG3199 0.06 pM alone (MMAE 0)): 0.12
Fa (fraction affected) (SG3199 0.23 pM alone (MMAE 0)): 0.16
Fa (fraction affected) (SG3199 0.90 pM alone (MMAE 0)): 0.15
Fa (fraction affected) (SG3199 3.6 pM alone (MMAE 0)): 0.15
Fa (fraction affected) (SG3199 14.4 pM alone (MMAE 0)): 0.19
Fa (fraction affected) (SG3199 57.5 pM alone (MMAE 0)): 0.23
Fa (fraction affected) (SG3199 230 pM alone (MMAE 0)): 0.46
